# Test results as given in article PMC12381025 (Scientific Reports, 2025).
# Columns and labels:
# α-amylase = assay: α-Amylase inhibition assay; assay type: biochemical; settings: versus standard inhibitor acarbose
# α-glucosidase = assay: α-Glucosidase inhibition assay; assay type: biochemical; settings: versus standard inhibitor acarbose
structure (smiles),measurement,setting,value
"O=C(CCc1nc2ccccc2[nH]1)N/N=C/c1cc2ccccc2nc1SCC(=O)Nc1ccc(F)cc1 [Compound 12n, (E)-2-((3-((2-(3-(1 H-benzo[d]imidazol-2-yl)propanoyl)hydrazineylidene)methyl)quinolin-2-yl)thio)-N-(4-fluorophenyl)acetamide]",fold more potent than acarbose against α-amylase,α-amylase,23.8 fold
same,fold more potent than acarbose against α-glucosidase,α-glucosidase,5 fold
